Among the test systems are SF-268 CNS; CAKI-1 renal; ACHN renal; NCI-H460 lung; RPMI-8226 leukemia; MDA-MB-435; TK-10 renal; PC-3 prostate; HL-60(TB) leukemia; DMS 273 small cell lung; DLD-1 colon.
Holding throughout (experiment): DTP human tumour cell line panel, 48 h

Data on 13 compounds can be found in PubChem BioAssay (NCI).

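Results reflect a 48-hour exposure of cells in 96-well plates to compound at five concentrations. GI50 is the concentration that inhibits growth by half. Definition used: TGI = concentration required for complete inhibition of growth.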

Consider `CCc1cc(=O)n(/C(C)=C/c2ccccc2)n1C`, for which the TGI in the experiment on SF-268 CNS, in the experiment with CAKI-1 renal, in the experiment with ACHN renal, with NCI-H460 lung, in the experiment on RPMI-8226 leukemia and in the experiment on MDA-MB-435 was greater than 100 µM in each case. Moreover, the TGI with TK-10 renal and in the experiment on PC-3 prostate was greater than 100 µM throughout.

With `CCOC(=O)c1csc(NC(=O)CCCC#N)n1`, the TGI in the experiment on CAKI-1 renal, in the experiment on HL-60(TB) leukemia, with ACHN renal, with NCI-H460 lung, with RPMI-8226 leukemia and in the experiment with MDA-MB-435 was greater than 100 µM throughout. The TGI with TK-10 renal and with PC-3 prostate was greater than 100 µM each time.

For `c1ccc([P+](Cc2csnn2)(c2ccccc2)c2ccccc2)cc1`, the TGI with SF-268 CNS, in the experiment with CAKI-1 renal, in the experiment on HL-60(TB) leukemia, in the experiment with ACHN renal, in the experiment on NCI-H460 lung and with RPMI-8226 leukemia was greater than 100 µM in each case. In addition, the TGI in the experiment on DMS 273 small cell lung, with TK-10 renal and with DLD-1 colon was greater than 100 µM each time.

For the compound `CCOC(=O)C(C)NC(=O)N(C)C12CC3CC(CC(C3)C1)C2` (configuration not stated), the TGI (usually the concentration giving total growth inhibition) with SF-268 CNS was greater than 500 µM; with CAKI-1 renal it was greater than 404 µM; in the experiment with HL-60(TB) leukemia it was 272 µM; in the experiment on NCI-H460 lung, greater than 442 µM; with RPMI-8226 leukemia, 422 µM; in the experiment with DMS 273 small cell lung it was greater than 500 µM. This compound had a TGI in the experiment with DLD-1 colon greater than 79.3 µM.

Regarding `O=C1c2c(c3c4ccc(Br)cc4oc3c3[nH]c4ccccc4c23)C(=O)N1O`, the GI50 (in general, the concentration giving 50% growth inhibition) was 1.11 µM in the experiment on ACHN renal, 3.11 µM with MDA-MB-435, 4.67 µM with TK-10 renal and 1.3 µM with PC-3 prostate. The TGI with ACHN renal, in the experiment with MDA-MB-435, in the experiment with TK-10 renal and with PC-3 prostate was greater than 100 µM throughout.

In the case of `CCC1(CC)C(=O)NC(=S)N=C1N`, the total growth inhibition concentration (TGI) with SF-268 CNS, with HL-60(TB) leukemia, in the experiment with ACHN renal, with NCI-H460 lung, in the experiment with RPMI-8226 leukemia and in the experiment with DMS 273 small cell lung was greater than 100 µM throughout. For the same compound, the TGI in the experiment on TK-10 renal and in the experiment on DLD-1 colon was greater than 100 µM each time.

`COc1ccc(CN2C(=O)C(=O)N(C)C2=O)c2ccccc12`: the TGI with SF-268 CNS, in the experiment on CAKI-1 renal, in the experiment on HL-60(TB) leukemia, in the experiment on ACHN renal, in the experiment with NCI-H460 lung and in the experiment on RPMI-8226 leukemia was greater than 10 µM throughout. For the same compound, the TGI in the experiment with MDA-MB-435, in the experiment on TK-10 renal and in the experiment on PC-3 prostate was greater than 10 µM throughout.

For the compound `CCOC(=O)C1=C(C)NC(=O)N([N+](=O)[O-])C1c1ccccc1C(F)(F)F` (configuration not stated), the TGI in the experiment with SF-268 CNS is greater than 100 µM; in the experiment with CAKI-1 renal, greater than 100 µM; with HL-60(TB) leukemia, greater than 100 µM; in the experiment on ACHN renal, greater than 100 µM; with NCI-H460 lung it was greater than 100 µM; with RPMI-8226 leukemia it was 72.4 µM. Moreover, the TGI with MDA-MB-435, with TK-10 renal and in the experiment with PC-3 prostate was greater than 100 µM in each case.

As to `O=C(NN1C(=O)CSC1c1ccc(Cl)c(Cl)c1)c1ccncc1` (configuration not stated), the TGI in the experiment with SF-268 CNS, in the experiment with CAKI-1 renal, in the experiment with HL-60(TB) leukemia, in the experiment with ACHN renal, with RPMI-8226 leukemia and with DMS 273 small cell lung was greater than 100 µM each time. In addition, the TGI in the experiment on TK-10 renal and in the experiment on DLD-1 colon was greater than 100 µM throughout.

As for `Cc1cc(C)nc(NS(=O)(=O)c2ccc(Nc3c4ccccc4nc4c(C(=O)NCCO)cccc34)cc2)n1`, the concentration for total growth inhibition (TGI) in the experiment with SF-268 CNS is 58.6 µM; with CAKI-1 renal it was 52.7 µM; in the experiment with HL-60(TB) leukemia, greater than 100 µM; with ACHN renal, greater than 100 µM; with NCI-H460 lung, greater than 100 µM; in the experiment with RPMI-8226 leukemia, 36.5 µM. Also, the values for the TGI in the experiment on MDA-MB-435 and with PC-3 prostate were 40.7 µM and greater than 100 µM, respectively.

As to `O=c1c2cc3c(=O)n(CCc4ccccc4CO)c(=O)c3cc2c(=O)n1CCc1ccccc1CO`, the concentration for total growth inhibition (TGI) in the experiment on SF-268 CNS, in the experiment on HL-60(TB) leukemia, in the experiment with ACHN renal, with NCI-H460 lung, with DMS 273 small cell lung and in the experiment on TK-10 renal was greater than 100 µM in each case. The compound also returned a TGI in the experiment with DLD-1 colon greater than 100 µM.

Consider `COc1cc(CCCOC2OC(COC3OCC(O)C(O)C3O)C(O)C(O)C2O)cc2cc(-c3ccc4c(c3)OCO4)oc12` (configuration not stated), for which the TGI in the experiment on SF-268 CNS, in the experiment with CAKI-1 renal, in the experiment with HL-60(TB) leukemia, in the experiment on NCI-H460 lung, in the experiment with RPMI-8226 leukemia and with DMS 273 small cell lung was greater than 175 µM in each case. In the experiment with DLD-1 colon, this compound came in with a TGI greater than 175 µM.

Consider `Nc1nc(Nc2ccc(OCc3cccc(F)c3)cc2)c2c(n1)[nH]c1ccc(O)cc12`, for which the GI50 in the experiment on SF-268 CNS was 3.1 µM; in the experiment with HL-60(TB) leukemia it was 2.01 µM; in the experiment on ACHN renal, 3.16 µM; in the experiment on NCI-H460 lung, 3.25 µM; in the experiment on RPMI-8226 leukemia it was 2.16 µM; in the experiment with MDA-MB-435, 3.68 µM. Further, the GI50 in the experiment with TK-10 renal was 3.49 µM; with PC-3 prostate it was 3.71 µM. Further, the TGI was found to be 12.2 µM in the experiment on SF-268 CNS; 4.21 µM in the experiment with HL-60(TB) leukemia; 12 µM in the experiment on ACHN renal; 9.37 µM with NCI-H460 lung; 5.55 µM in the experiment on RPMI-8226 leukemia; 14.1 µM with MDA-MB-435. The TGI in the experiment with TK-10 renal was determined as 16.4 µM; in the experiment with PC-3 prostate, 14.7 µM.
